Laboratory results from PubChem BioAssay AID504748 (National Center for Advancing Translational Sciences (NCATS), 2011).

Test system: mouse liver microsomes, percent remaining, LC-MS/MS
Test: Inhibitors of N370S glucocerebrosidase as a Potential Chaperone Treatment of Gaucher Disease: Metabolic Stability Profile
Conditions: at 5 µM; hits give high values
Description: Glucocerebrosidase (GC) catalyzes the hydrolysis of beta-glucocerebroside to glucose and ceramide in lysosomes. Mutations in the glucocerebrosidase gene result in Gaucher disease, an autosomal recessive lysosomal storage disorder. Many of the mutations encountered in patients with Gaucher disease are missense alterations that may cause misfolding, decreased stability and/or mistrafficking of this lysosomal protein. […] These inhibitors include iminosugar analogs and three non-iminosugar inhibitors identified from a previous HTS of 62,000 compounds with the wild type recombinant enzyme. After further testing a probe has been identified and was characterized though AMDE tests. Mouse liver microsomes are created through broken up endoplasmic reticulum from mouse liver. These liver microsomes contain many drug metabolizing enzymes, such as Cytochome P-450s and flavin-containing monooxygenases. […] NIH Chemical Genomics Center [NCGC] NIH Molecular Libraries Probe Production Centers Network [MLPCN] MLPCN Grant: MH086442-01 Assay Submitter (PI): Wei Zheng
5uM of compound is incubated with mouse liver microsome; the reference compounds are verapamil and warfarin. Compounds are incubated and samples are analyzed with LC-MS/MS.

SMILES: S=C(NCCCc1cnc[nH]1)NCCCN(Cc1ccc(Cl)c(Cl)c1)c1ccc(Br)cn1
- percent remaining: 102%
